For assay [1], the target named is T1, follicle-stimulating hormone (FSH) receptor (Rattus norvegicus, UniProt P20395).
T1 construct: endogenous in cells; host or cells: rat granulosa cells
T1 sequence (P20395 18-692): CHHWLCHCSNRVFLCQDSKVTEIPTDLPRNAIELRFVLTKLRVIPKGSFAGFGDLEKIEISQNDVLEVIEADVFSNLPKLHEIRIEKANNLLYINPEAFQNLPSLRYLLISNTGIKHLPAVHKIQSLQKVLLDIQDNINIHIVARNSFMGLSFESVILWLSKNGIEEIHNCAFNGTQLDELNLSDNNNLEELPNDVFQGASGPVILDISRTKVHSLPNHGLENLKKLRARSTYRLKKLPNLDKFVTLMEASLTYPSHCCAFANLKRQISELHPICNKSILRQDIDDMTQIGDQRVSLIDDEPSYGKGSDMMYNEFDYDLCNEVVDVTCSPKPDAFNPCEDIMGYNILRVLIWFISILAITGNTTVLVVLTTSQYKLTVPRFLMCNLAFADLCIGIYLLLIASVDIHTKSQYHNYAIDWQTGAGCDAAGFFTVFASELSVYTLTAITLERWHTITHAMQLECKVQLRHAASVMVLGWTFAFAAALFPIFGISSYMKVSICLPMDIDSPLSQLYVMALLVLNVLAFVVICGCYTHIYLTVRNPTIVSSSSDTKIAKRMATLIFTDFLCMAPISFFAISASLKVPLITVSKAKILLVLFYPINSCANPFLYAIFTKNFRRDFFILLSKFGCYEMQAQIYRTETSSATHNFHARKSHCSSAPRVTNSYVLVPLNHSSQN
The assay is described as follows: Rat granulosa EC50 FSH (Assay B). It counts as cell-based. Here is the method:
Example 25. Rat granulosa EC50 FSH (Assay B)
The assay was performed pursuant to the teaching of Yanofsky et al. (2006) Allosteric activation of the follicle-stimulating hormone (FSH) receptor by selective, nonpeptide agonists (JBC 281(19): 13226-13233, which is incorporated by reference in the disclosure of the invention).

The target in a further assay is T2, FSHR (Homo sapiens, UniProt P23945).
T2 construct: expressed in transfected cells; host or cells: CHO (Cho-FSHR-LUC-1-1-43)
T2 sequence (P23945 18-695): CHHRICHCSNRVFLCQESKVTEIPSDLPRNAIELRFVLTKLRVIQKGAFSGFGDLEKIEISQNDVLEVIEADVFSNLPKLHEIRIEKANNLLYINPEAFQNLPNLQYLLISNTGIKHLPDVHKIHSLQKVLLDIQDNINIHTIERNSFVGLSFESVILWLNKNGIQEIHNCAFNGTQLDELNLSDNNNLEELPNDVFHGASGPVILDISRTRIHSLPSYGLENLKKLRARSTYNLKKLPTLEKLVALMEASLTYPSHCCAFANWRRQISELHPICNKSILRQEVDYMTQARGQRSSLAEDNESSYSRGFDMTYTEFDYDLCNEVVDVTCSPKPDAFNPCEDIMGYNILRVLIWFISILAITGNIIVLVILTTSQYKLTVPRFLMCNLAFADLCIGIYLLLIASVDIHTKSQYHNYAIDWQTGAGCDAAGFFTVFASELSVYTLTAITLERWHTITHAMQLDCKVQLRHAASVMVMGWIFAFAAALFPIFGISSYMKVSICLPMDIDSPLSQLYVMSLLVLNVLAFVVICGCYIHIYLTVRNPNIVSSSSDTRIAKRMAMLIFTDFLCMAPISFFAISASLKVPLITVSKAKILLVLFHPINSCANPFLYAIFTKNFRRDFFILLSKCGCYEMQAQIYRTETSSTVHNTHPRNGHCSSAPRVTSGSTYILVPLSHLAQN
Description: EC50 of cyclic AMP production in CHO FSHR cells + EC20 FSH (Assay A). In kind it is cell-based. The conditions noted are these: cyclic AMP production in CHO FSHR cells + EC20 FSH (0.265 pM), HTRF. Here is the method:
Example 24. EC50 of cyclic AMP production in CHO FSHR cells+EC20 FSH (Assay A)
2500 Cho-FSHR-LUC-1-1-43 cells were plated per well in 5 al of phenol red free DMEM/F12+1% FBS. Cells were plated in 384 well, solid white low volume plates (Greiner 784075) by Multidrop. Cells were assayed by adding 100 al of 2×EC20 FSH/IBMX in DMEM/F12+0.1% BSA) by Multidrop to 2 al of test compound stamped in 384 well plates (compounds are diluted 1:50). The final FSH concentration was 0.265 pM, and the final IBMX concentration was 200 μM. The compound plate map was as follows: Column 1: 2 μl of DMSO; Column 2: 2 μl of DMSO; Columns 3-12 and 13-24: 2 μl of test compound, diluted 1:4 in 100% DMSO, or 2 μl of FSH, diluted 1:4 in DMEM/F12+0.1% BSA. The starting concentration for FSH was 50 nM (final concentration was 0.5 nM). Furthermore, Column 23 contained 2 μl of EC100 FSH reference (100×) (diluted in DMEM/F12+0.1% BSA) at a final concentration of 0.5 nM, and Column 24 contained 2 μl of 1 mM AS707664/2 reference compound 2. 5 μl of compound+EC20 FSH mixture were transferred to cell plates (1:2 dilution into 5 μl of cell media) The plates were incubated at 37° C. for 1 h. 10 μl of mixed HTRF (CisBio #62AM4PEC) reagents were added per well and incubated at room temperature for 1 h. The plates were read on Envision using the cAMP HTRF—low volume 384 well protocol. The readout was the calculated fluorescence ratio (665 nm/620 nm). Values given in percent (%) indicate the percental effect (response) at a certain concentration of agonist relative to the maximum response of the FSH standard.
(Time-resolved FRET reads energy transfer from a long-lived donor to a nearby acceptor.)

In patent publication US10941152B2, “Pyrazole compounds as modulators of FSHR and uses thereof” (TOCOPHERX, INC., priority 2014, dated 2021) one finds EC50 data, which are given here for 15 compounds.

By EC50 is commonly meant the concentration at which the effect is half-maximal. Take `COc1cc2c(cc1-c1ccn(C)n1)-c1c(c(C(=O)N3CCOCC3(C)C)nn1-c1cc(F)cc(F)c1)CO2` [Compound 51, (1-(3,5-difluorophenyl)-7-methoxy-8-(1-methyl-1H-pyrazol-3-yl)-1,4-dihydrochromeno[4,3-c]pyrazol-3-yl)(3,3-dimethylmorpholino)methanone]: the EC50 in assay [1] was in the range of 101 to 500 nM; at FSHR it was 10 to 100 nM.
The matching figures for `COc1cc2c(cc1-c1cncc(C(=O)O)c1)-c1c(c(C(=O)N3CCOCC3(C)C)nn1-c1cc(Cl)cc(Cl)c1)CO2` [Compound 178, 5-(1-(3,5-dichlorophenyl)-3-(3,3-dimethylmorpholine-4-carbonyl)-7-methoxy-1,4-dihydrochromeno[4,3-c]pyrazol-8-yl)nicotinic acid]: less than 10 nM and less than 10 nM.
For `COc1cc2c(cc1-c1cnn(CC(O)CO)c1)-c1c(c(C(=O)N(C)C(C)(C)C)nn1-c1cc(Cl)cc(Cl)c1)CO2` (single isomer, unassigned) [Compound 191, N-tert-butyl-1-(3,5-dichlorophenyl)-8-(1-(2,3-dihydroxypropyl)-1H-pyrazol-4-yl)-7-methoxy-N-methyl-1,4-dihydrochromeno[4,3-c]pyrazole-3-carboxamide], in that order: 101 to 500 nM and 10 to 100 nM.
For `COc1cc2c(cc1-c1cc(F)cc(C(N)=O)c1)-c1c(c(C(=O)N(C)C(C)(C)C)nn1-c1cc(Cl)cc(Cl)c1)CO2` [Compound 97, N-tert-butyl-8-(3-carbamoyl-5-fluorophenyl)-1-(3,5-dichlorophenyl)-7-methoxy-N-methyl-1,4-dihydrochromeno[4,3-c]pyrazole-3-carboxamide], in that order: less than 10 nM and less than 10 nM.
For the compound `COc1cc2c(cc1-c1cnn(CC(=O)O)c1)-c1c(c(C(=O)N(C)C(C)(C)C)nn1-c1cc(Cl)cc(Cl)c1)CO2` [Compound 81, 2-(4-(3-(tert-butyl(methyl)carbamoyl)-1-(3,5-dichlorophenyl)-7-methoxy-1,4-dihydrochromeno[4,3-c]pyrazol-8-yl)-1H-pyrazol-1-yl)acetic acid], the EC50 in assay [1] lay within 101 to 500 nM; on FSHR it was 10 to 100 nM.
The matching figures for `COc1cc2c(cc1-c1ccccn1)-c1c(c(C(=O)N(C)C(C)(C)C)nn1-c1ccsc1)CO2` [Compound 58, N-tert-butyl-7-methoxy-N-methyl-8-(pyridin-2-yl)-1-(thiophen-3-yl)-1,4-dihydrochromeno[4,3-c]pyrazole-3-carboxamide]: more than 500 nM and 10 to 100 nM.
The matching figures for `COc1cc2c(cc1-c1ccn(C)n1)-c1c(c(C(=O)N3CCC(O)CC3(C)C)nn1-c1ccsc1)CO2` (stereo not drawn) [Compound 57, (4-hydroxy-2,2-dimethylpiperidin-1-yl)(7-methoxy-8-(1-methyl-1H-pyrazol-3-yl)-1-(thiophen-3-yl)-1,4-dihydrochromeno[4,3-c]pyrazol-3-yl)methanone]: 101 to 500 nM and 10 to 100 nM.
For `COc1cc2c(cc1-c1cncc(C#N)c1)-c1c(c(C(=O)N(C)C(C)(C)C)nn1-c1cc(Cl)cc(Cl)c1)CO2` [Compound 8, N-tert-butyl-8-(5-cyanopyridin-3-yl)-1-(3,5-dichlorophenyl)-7-methoxy-N-methyl-1,4-dihydrochromeno[4,3-c]pyrazole-3-carboxamide], in that order: 101 to 500 nM and less than 10 nM.
Turning to `COc1cc(OC)cc(-n2nc(C(=O)N3CC[S+]([O-])CC3(C)C)c3c2-c2cc(-c4cccnc4F)c(OC)cc2OC3)c1` (stereo not drawn) [Compound 40, (1-(3,5-dimethoxyphenyl)-8-(2-fluoropyridin-3-yl)-7-methoxy-1,4-dihydrochromeno[4,3-c]pyrazol-3-yl)(S-oxo-3,3-dimethylthiomorpholino)methanone], the EC50 in assay [1] is 10 to 100 nM; on FSHR it was less than 10 nM.
For `COc1cc2c(cc1-c1cccc(CO)c1F)-c1c(c(C(=O)N(C)C(C)(C)C)nn1-c1cc(Cl)cc(Cl)c1)CO2` [Compound 195, N-tert-butyl-1-(3,5-dichlorophenyl)-8-(2-fluoro-3-(hydroxymethyl)phenyl)-7-methoxy-N-methyl-1,4-dihydrochromeno[4,3-c]pyrazole-3-carboxamide], in that order: 10 to 100 nM and 10 to 100 nM.
As for `COc1cc2c(cc1-c1ccn(C)n1)-c1c(c(C(=O)N(C)C(C)(C)C#N)nn1-c1cc(Cl)cc(Cl)c1)CO2` [Compound 132, N-(2-cyanopropan-2-yl)-1-(3,5-dichlorophenyl)-7-methoxy-N-methyl-8-(1-methyl-1H-pyrazol-3-yl)-1,4-dihydrochromeno[4,3-c]pyrazole-3-carboxamide], the figures for the EC50 (in assay [1]; at FSHR) were 101 to 500 nM and 10 to 100 nM, respectively.
The matching figures for `COc1cc2c(cc1-c1ccc(N)nc1)-c1c(c(C(=O)N(C)C(C)(C)C)nn1-c1cc(Cl)cc(Cl)c1)CO2` [Compound 16, 8-(6-aminopyridin-3-yl)-N-tert-butyl-1-(3,5-dichlorophenyl)-7-methoxy-N-methyl-1,4-dihydrochromeno[4,3-c]pyrazole-3-carboxamide]: 101 to 500 nM and less than 10 nM.
For `COc1cc(Cl)cc(-n2nc(C(=O)N3CCOCC3(C)C)c3c2-c2cc(-c4cnn(CC(=O)O)c4)c(OC)cc2OC3)c1` [Compound 86, 2-(4-(1-(3-chloro-5-methoxyphenyl)-3-(3,3-dimethylmorpholine-4-carbonyl)-7-methoxy-1,4-dihydrochromeno[4,3-c]pyrazol-8-yl)-1H-pyrazol-1-yl)acetic acid], in that order: 101 to 500 nM and less than 10 nM.
The matching figures for `COc1cc2c(cc1-c1cncc(C(N)=O)c1)-c1c(c(C(=O)N(C)C(C)(C)C)nn1-c1cc(F)cc(F)c1)CO2` [Compound 161]: 10 to 100 nM and less than 10 nM.
Consider `COC(=O)Cn1nc(C)c(-c2cc3c(cc2OC)OCc2c(C(=O)N(C)C(C)(C)C)nn(-c4cc(Cl)cc(Cl)c4)c2-3)c1C` [Compound 138, methyl 2-(4-(3-(tert-butyl(methyl)carbamoyl)-1-(3,5-dichlorophenyl)-7-methoxy-1,4-dihydrochromeno[4,3-c]pyrazol-8-yl)-3,5-dimethyl-1H-pyrazol-1-yl)acetate], for which the EC50 in assay [1] was 101 to 500 nM; on FSHR, less than 10 nM.
